Assay results published in patent US20140323575A1, “TYROSINE ISOMERS AS THERAPEUTIC AGENTS” (CONSEJO NACIONAL DE INVESTIGACIONES CIENTIFICAS Y TECNICAS …, priority 2011, published 2014).
Values after ≈ are worked out from the molar mass of the structure shown.

Legend:
LB tumor = assay: In vivo growth of s.c. LB tumor implants (primary, secondary under CR, established, ascitic); design: species or system mice; details: for growth of LB tumor implant: inoculated at the site of a primary tumor implant or systemically, daily for 8 days
Experimental: Twenty mice received an s.c. implant of 1×10^6 LB cells in the right flank, and, 7 days later, an s.c. secondary implant of 1×10^5 LB tumor cells in the left flank. […] The remaining 10 mice received 0.2 mL of phenylalanine (500 μg/mL) at the site of the secondary implant, daily, for 8 days, starting 1 hour after the secondary inoculum [CR+Phe (-□-)]. Controls were 10 mice receiving 1×10^5 LB tumor cells in the left flank only [control (-Δ-)]. A fourth group received the tumor inoculum in the left flank but also meta-tyrosine at the site of tumor implant (0.2 mL of 500 μg/mL, n=10) or by the intraperitoneal route (0.5 mL of 1,000 μg/mL, n=6), daily, for 8 days, starting 1 hour after tumor inoculum [control+m-Tyr: (-▴-)]. A fifth group received the tumor inoculum in the left flank and also meta-tyrosine (0.2 mL of 500 μg/mL, n=5) at the site of tumor growth, daily for 5 days, starting (see arrow) when LB was an established tumor measuring 60 to 70 mm^3 [est. LB+m-Tyr: (-X-)]. Abscissa, days after tumor implant in the left flank. Ordinate, volume of the tumors implanted in the left flank. CR and control+m-Tyr versus control: P<0.001 at day 9 and P<0.002 at days 5 and 7; CR and control+m-Tyr versus CR+Phe: P<0.001 at days 5, 7 and […]; est. LB+m-Tyr versus control and CR+Phe: P<0.002 at day 9. Control+tyrosine or saline, control; CR+tyrosine or saline, CR. FIG. 6B is a microscopic view showing many tumor cells expressing Ki-67 protein in both CR+phenylalanine (B1) and control (B2) groups and few tumor cells expressing Ki-67 in both CR (B3) and control+meta-tyrosine (B4) groups (H×400). FIG. 6C illustrates a representative experiment showing the frequency distribution histogram of viable LB cells from a control tumor (C1), from a secondary tumor inhibited by CR (C2), and from a tumor inhibited by periodic intraumoral injection of meta-tyrosine (C3). Samples of tumor cells were collected 9 days after the s.c. inoculation of 1×10^5 LB tumor cells.

[1] = test system: Chinese-hamster ovary (CHO) cells; details: cited from earlier work; for toxicity to CHO cells: incubated in vitro for 7-10 days
[2] = Evaluation of toxicity of the tyrosine isomers; format: in vivo, mice; details: for health of mice after three weeks of treatment / hematologic populations of the blood or the spleen / histological alterations in analyzed tissues / anti-RRC antibody levels: higher dose; for histological alterations in analyzed tissues: three weeks of treatment; for anti-RRC antibody levels: tumor bearing mice and normal mice
Experimental: The effect of meta-tyrosine and ortho-tyrosine on the immune response triggered by a conventional antigen was evaluated. Ram red cells (RRC) were used.

MC-C tumor cells = assay: In vitro proliferation of MC-C tumor cells; format: cell-based; details: dose-dependent, not shown
C7HI tumor cells = assay: In vitro proliferation of C7HI tumor cells; format: cell-based; details: dose-dependent, not shown
LB tumor cells = assay: In vitro LB tumor cell proliferation ([3H]-thymidine uptake); format: cell-based, mice; details: for IC50: Mus musculus, substance alone, read-out: GIU50/mL on in vitro LB tumor cell proliferation; for reversibility of the inhibitory effect: after 18 hours of culture, old medium replaced by fresh medium
Experimental: Each point (percentage of cpm incorporated by LB cells as compared with the control) represents the mean±SE of 3 experiments. Significance versus control, meta-tyrosine and peak 2: P<0.001 at >2.75 μg/mL; peak 2: P<0.05 at 2.75 μg/mL. ortho-tyrosine P<0.001 at 500 to 125 μg/mL; P<0.002 at 30 μg/mL. Peak 3: P<0.002 and P<0.01, at 31 and 15.5 μg/mL, respectively. Rescue of in vitro LB tumor inhibition mediated by meta-tyrosine (150 μg/mL)(B) or ortho-tyrosine (150 μg/mL) (C) by co-culturing with 150 μg/mL of individual protein amino acids. Each value represents the mean±SE of 8 to 18 determinations for (B) and 4 to 9 determinations for (C). a, P<0.01; c, P<0.001 versus meta- or ortho-tyrosine. Data with saline was similar to data obtained with each amino acid alone.
Fractionation of serum from mice bearing a subcutaneous LB tumor (size≧2,000 mm^3) was carried out through several steps of purification (FIG. 1). Serum from normal mice was similarly fractioned as control. At all stages of the purification, the presence of the inhibitory factor was monitored by the [^3H]-thymidine uptake assay as a measure of LB tumor cell proliferation. First, serum was decomplemented and subjected to dialysis. The inhibitory factor was recovered only in the dialyzable fraction (MW<12,500 Da) and was then concentrated by lyophilization and applied successively to Sephadex G-25 and G-15 chromatographic columns, where activity was recovered at fractions corresponding to a molecular weight below 1,000 Da. These fractions were lyophilized and further purified with an HPLC column C18 in a gradient of acetonitrile in TFA (first HPLC). In 12 similar and independent experiments, growth inhibitory activity was systematically recovered in only 1 fraction eluted at near 20% acetonitrile (FIG. 2).
To test directly whether a “cocktail” of amino acids similar to that detected close to the “primary site” was more counteracting of the antitumor effects produced by m- and o-tyrosine than a “secondary site cocktail,” different concentrations of a mixture of m-tyrosine and o-tyrosine (ratio 1:1) were assayed on LB tumor cell proliferation, alone or together with a primary or a secondary site cocktail of amino acids.

SMILES | growth of LB tumor implant (LB tumor) | toxicity to CHO cells [1] | health of mice after three weeks of treatment [2] | hematologic populations of the blood or the spleen [2] | histological alterations in analyzed tissues [2] | anti-RRC antibody levels [2] | in vitro proliferation of MC-C tumor cells (MC-C tumor cells) | in vitro proliferation of C7HI tumor cells (C7HI tumor cells) | IC50 (LB tumor cells) [µg/mL] | reversibility of the inhibitory effect (LB tumor cells) | effect on established s.c. LB tumors (LB tumor; at site of tumor growth, daily for 5 days, tumor 60 to 70 mm^3 at start) | expression of Ki-67 protein in tumor cells (LB tumor; control+m-tyrosine tumors or secondary implants treated with phenylalanine (FIG. 6B)) | tumor growth when treatment was interrupted (LB tumor; mouse, in vivo) | cell-cycle distribution of LB tumor cells (LB tumor; tumor inhibited by exogenous injection (FIG. 6C)) | CHO cells alive 10 days after start of the in vitro culture ([1]; treated with meta-tyrosine) [%] | toxic side effects in tumor-bearing mice ([2]; during treatment of MC-C, CEI and C7HI tumors) | inhibitory effect of m-tyrosine relative to o-tyrosine (LB tumor cells; in vitro LB tumor cell proliferation)
NC(Cc1ccccc1O)C(=O)O (stereo not drawn) [ortho-tyrosine, 2-hydroxyphenylalanine] | inhibitory | toxic | remained in good health | did not affect | no histological alterations | does not affect | inhibited | inhibited | 46.7 ± 5.2 (≈ 258 µM) | reversible |  |  |  |  |  |  | 
NC(Cc1cccc(O)c1)C(=O)O (stereo not drawn) [meta-tyrosine, 3-hydroxyphenylalanine] | did not grow | toxic | remained in good health | did not affect | no histological alterations | does not affect | inhibited | inhibited | 4.5 ± 0.9 (≈ 24.8 µM) | reversible | inhibitory | low expression of Ki-67 | could reassume their growth | a decrease in G2-M phases and an increase of the S phase population | 70 | without exhibiting toxic side effects | about 10 times
